Laboratory results as given in patent US11517645B2, “Bone-tendon graft biomaterial, use as a medical device and method of making same” (The Board of Trustees of the Leland Stanford Junior …, priority 2016, dated 2022).

Legend:
[1] = test system: C2C12 cells; assay: ALP staining, C2C12 osteoblast differentiation on QHM polymers with BMP-2 in media; format: cell-based, mouse; settings: 25 μM blebbistatin
Description: ALP activity was detected according to the manufacturer's instructions (Sigma Aldrich, St. Louis, Mo.) as previously described with minor modifications^18,19.
(§1) For studies on the effect of Young's moduli on osteoblast differentiation (using uniform QHM polymer samples), C2C12 cells were seeded into 24 well plates containing uncoated QHM polymer samples (circular discs approximately 1 cm in diameter) at a density of 7.47×10^4 cells per cm^2 overnight in DMEM, 10% FBS and 1% PS media. […] Media were changed every 48 h. ALP staining was performed at 4, 8 and 14 days.
as §1, with “0 s:300 s UV mechanically-graded” for “uniform”, “(rectangular specimens measuring” for “(circular discs”, “0.5 cm×1 cm)” for “1 cm in diameter)”, “were” for “was”, “3 days post-seeding.” for “4, 8 and 14 days.”
At designated time points, cells were fixed for 1 min in 3.7% formaldehyde and samples were incubated with ALP stain for 1 h. Color images of samples were acquired using an inverted Zeiss AxioObserver Z1 microscope equipped with an AxioCam ICC color camera and a Nikon D70 Digital camera (Nikon Corp., Tokyo, Japan). Where required, the ALP-stained images were quantified by calculating the average pixel intensity in Adobe Photoshop 7.0 as previously described^18,19.

[2] = test system: C57BL-6J mice; assay: Mouse subcutaneous implantation of growth factor-biopatterned QHM grafts; format: in vivo; settings: 3 μg patterned on fibrin-coated QHM polymer, 14 days subcutaneous
Description: Mouse subcutaneous surgeries were performed in accordance with the guidelines established by Stanford University's Administrative Panel on Laboratory Animal Care. Wild-type C57BL-6J mice (Charles River Laboratories, Wilmington, Mass.) between 8 and 12 weeks of age (20-30 g) were used in this study. All mice were maintained in the Stanford Animal Facility, with a 12:12 h light-dark cycle and free access to standard laboratory food and water. Mice were anesthetized by inhalation with isoflurane (4% for induction, 2% for maintenance, Abbott Laboratories, Chicago) as well as administered 0.05 mg/kg Buprenorphine (Hospira Inc., Lake Forest, Ill.) and 25 mg/kg Cefazolin (Thermo Fisher Scientific, Waltham, Mass.) as an analgesic and anti-infective, respectively. Grafts (Square specimens 6×6×1 mm) were comprised of 0 s UV and 300 s UV QHM polymer regions (each measuring 3×3×1 mm) biopatterned with 1) no growth factor, 2) 3 μg FGF-2 on 0 s UV QHM polymer region and 3 μg BMP-2 on 300 s UV QHM polymer region or 3) 3 μg GDF-7 on 0 s UV QHM polymer region and 3 μg BMP-2 on 300 s UV QHM polymer region. Under sterile conditions, a 2.5 cm skin incision was made and grafts were sutured subcutaneously to the skin using 3-0 Nylon sutures (Oasis, Med-Vet International, Mettawa, Ill.) in a bilateral manner. Subsequently, the skin was re-approximated and closed with 3-0 Nylon sutures. […]

[3] = test system: C2C12 cells; assay: TENASCIN C and TENOMODULIN immunofluorescence, C2C12 on TCPS with FGF-2; format: cell-based, mouse; settings: 50 or 100 ng/mL FGF-2, TCPS, 3 days
Description: (§2) Immunofluorescence staining was performed as previously described with minor modifications^18,19.
For in vitro studies not involving QHM polymers, C2C12 cells were seeded into 24 well plates at a density of 7.47×10^4 cells per cm^2 in DMEM, 10% FBS, 1% PS media. The following day (Day 0), the media were changed to DMEM, 10% FBS, 1% PS with 0, 50 or 100 ng/mL FGF-2. Media were changed every 48 h. Cells were fixed in 4% paraformaldehyde (Electron Microscopy Sciences, Hatfield, Pa.) for 15 min and TENOMODULIN or TENASCIN C staining was performed at 3 days post-seeding.
(§3) Samples were permeabilized with 0.2% Triton X-100 (Sigma Aldrich, St. Louis, Mo.), washed three times in wash buffer (PBS and 0.1% BSA) and blocked with 10% donkey serum (Jackson Immunoresearch, West Gove, Pa.) for 1 h at room temperature. […] Lastly, cells were rinsed five times with wash buffer (5 min each) and fluorescence images were acquired on an inverted Zeiss AxioObserver Z1 microscope equipped with an X-Cite® Series 120Q metal halide lamp, appropriate filters and an AxioCam MRm camera.

[4] = test system: C2C12 cells; assay: SCX immunofluorescence, C2C12 tenocyte differentiation on QHM polymers; format: cell-based, mouse; settings: fibrin-coated QHM polymers in vitro, 3 days
Description: as §2
For studies on the effect of Young's moduli on osteoblast or tenocyte differentiation (using uniform or 0 s:300 s UV mechanically-graded QHM polymer samples), C2C12 cells were seeded into 24 well plates containing uncoated QHM polymer samples (circular discs approximately 1 cm in diameter or rectangular specimens measuring approximately 0.5 cm×1 cm) at a density of 7.47×10^4 cells per cm^2 overnight in DMEM, 10% FBS and 1% PS media. […] Media were changed every 48 h. SCX staining was performed at 3 days post-seeding. RUNT-RELATED TRANSCRIPTION FACTOR-2 (RUNX-2) or OSTEOCALCIN (OCN) staining was performed at 4 days post-seeding. […]
as §3

Cc1ccc2c(c1)C(=O)C1(O)CCN(c3ccccc3)C1=N2 (stereo not drawn) [blebbistatin]
Effect on BMP-2-induced ALP activity on QHM polymers ([1]; 4 days): inhibited slightly
Effect on C2C12 ALP activity on TCPS ([1]; 4 days): did not inhibit
Inhibitory effect on ALP activity ([1]; 8 days): occurred only on 0 s UV QHM polymer
Inhibitory effect on ALP activity ([1]; 14 days): no longer observed

FGF-2: fibroblast growth factor-2 (Peprotech), tendon-promoting cue
Tissue formed on growth factor pattern in vivo [2]: reminiscent of immature tendon
TENASCIN C expression relative to untreated controls [3]: increased TENASCIN C expression
TENOMODULIN expression relative to untreated controls [3]: increased TENOMODULIN expression
C2C12 SCX expression on FGF-2 patterns relative to off pattern controls [4]: largely increased

B1: GDF-7: growth and differentiation factor-7 (Sino Biological), tendon-promoting cue (protein, UniProt Q7Z4P5 322-450, looked up)
Growth/differentiation factor …: TALAGTRTAQGSGGGAGRGHGRRGRSRCSRKPLHVDFKELGWDDWIIAPLDYEAYHCEGLCDFPLRSHLEPTNHAIIQTLLNSMAPDAAPASCCVPARLSPISILYIDAANNVVYKQYEDMVVEACGCR
Tissue formed on growth factor pattern in vivo [2]: reminiscent of immature tendon
